Results: patent publication US20230226096A1 (Orna Therapeutics, Inc., priority 2020, published 2023)

How the values were obtained:
[1] = RNA encapsulation / entrapment by Ribogreen assay; format: physicochemical; details: Table 36b, LNPs with circular RNA
Method: A QUANT-IT™ RIBOGREEN® RNA assay (Invitrogen Corporation Carlsbad, Calif.) can be used to evaluate the encapsulation of circRNA by the nanoparticle composition. The samples are diluted to a concentration of approximately 5 μg/mL or 1 μg/mL in a TE buffer solution (10 mM Tris-HCl, 1 mM EDTA, pH 7.5). 50 μL of the diluted samples are transferred to a polystyrene 96 well plate and either 50 μL of TE buffer or 50 μL of a 2-4% Triton X-100 solution is added to the wells. The plate is incubated at a temperature of 37° C. for 15 minutes. The RIBOGREEN® reagent is diluted 1:100 or 1:200 in TE buffer, and 100 μL of this solution is added to each well. The fluorescence intensity can be measured using a fluorescence plate reader (Wallac Victor 1420 Multilabel Counter; Perkin Elmer, Waltham, Mass.) at an excitation wavelength of, for example, about 480 nm and an emission wavelength of, for example, about 520 nm. The fluorescence values of the reagent blank are subtracted from that of each of the samples and the percentage of free circRNA is determined by dividing the fluorescence intensity of the intact sample (without addition of Triton X-100) by the fluorescence value of the disrupted sample (caused by the addition of Triton X-100). C.
For transfer vehicle compositions including RNA, a QUANT-IT™ RIBOGREEN® RNA assay (Invitrogen Corporation Carlsbad, Calif.) can be used to evaluate the encapsulation of RNA by the transfer vehicle composition. […] The fluorescence intensity can be measured using a fluorescence plate reader (Wallac Victor 1420 Multilabel Counter; Perkin Elmer, Waltham, Mass.) at an excitation wavelength of, for example, about 480 nm and an emission wavelength of, for example, about 520 nm. The fluorescence values of the reagent blank are subtracted from that of each of the samples and the percentage of free RNA is determined by dividing the fluorescence intensity of the intact sample (without addition of Triton X-100) by the fluorescence value of the disrupted sample (caused by the addition of Triton X-100). […]

[2] = LNP particle size (Z-average) and polydispersity index by dynamic light scattering; format: physicochemical; details: Table 36b, LNPs with circular RNA
Method: The microfluidic chamber is cleaned with ethanol and neMYSIS syringe pumps are prepared by loading a syringe with the RNA solution and another syringe with the ethanolic lipid. Both syringes are loaded and under the control of neMESYS software. The solutions are then applied to the mixing chip at an aqueous to organic phase ratio of 2 and a total flow rate of 22 ml/min (14.67 ml/min for RNA and 7.33 ml/min for the lipid solution. Both pumps are started synchronously. The mixer solution that flowed from the microfluidic chip is collected in 4×1 ml fractions with the first fraction being discarded as waste. The remaining solution containing the circRNA-transfer vehicles is exchanged by using G-25 mini desalting columns to 10 mM Tris-HCl, 1 mM EDTA, at pH 7.5, as described above. Following buffer exchange, the materials are characterized for size, and RNA entrapment through DLS analysis and Ribogreen assays, respectively.
(§1) Lipid Nanoparticles (LNPs) were formed using a Precision Nanosystems Ignite instrument with a ‘NextGen’ mixing chamber. […] A 3:1 aqueous to ethanol mixing ratio was used. The formulated LNP then were dialyzed in 1 L of water and exchanged 2 times over 18 hours. Dialyzed LNPs were filtered using 0.2 μm filter. Prior to in vivo dosing, LNPs were diluted in PBS. LNP sizes were determined by dynamic light scattering. A cuvette with 1 mL of 20 μg/mL LNPs in PBS (pH 7.4) was measured for Z-average using the Malvern Panalytical Zetasizer Pro. The Z-average and polydispersity index were recorded.
as §1, with “formulated LNPs were” for “formulated LNP”, “then” for “then were”
as §1, with “formulated LNPs were” for “formulated LNP”, “then” for “then were”, “of 1×PBS” for “of water”

1C1C7 cells [3] = assay: Modified IRES, stop codon cassettes, 5′ UTR variants: GLuc luminescence in 1C1C7 cells; format: cell-based; details: 24 and 48 hours after transfection
Source text: This example describes modifications of CK-739, AP-748, and PV-743 IRES sequences, including mutations alternative translation initiation sites.
This example describes modifications of circular RNAs by introducing stop codon or cassette variants. […] 1C1C7 cells were transfected with the circular RNAs.
This example describes modifications of circular RNAs by inserting 5′ UTR variants. […] 1C1C7 cells were transfected with the circular RNAs.

1C1C7 cells [4] = assay: GLuc luminescence and functional stability by IRES in 1C1C7 cells; details: 100 ng circularization reaction per 20,000 cells
HEK293 cells = assay: GLuc luminescence by IRES in HEK293 cells; details: 100 ng circularization reaction per 20,000 cells

Row | Molecule | RNA Entrapment(%) [1] [%] | PDI [2] | Z-Average(nm) [2] [nm] | other results
1 | CCCCCCCCCCCCCCSCCOC(=O)CCN(CCCn1ccnc1)CCC(=O)OCCSCCCCCCCCCCCCCC [93-S14, bis(2-(tetradecylthio)ethyl) 3,3′-((3-(1H-imidazol-1-yl)propyl)azanediyl)dipropionate] | 95 | 0.04 | 74 | –
2 | UTR2: 5′ UTR variant: canonical Kozak sequence with "a 36-nucleotide unstructured/low GC spacer sequence" added (DNA AATAAGAGAGAAAAGAAGAGTAAGAAGAAATATAAGAGCCACC; expressed or natural sequence) | – | – | – | translation / expression (luminescence in supernatant) (1C1C7 cells [3]): more effective
3 | UTR3: 5′ UTR variant: "a higher-GC/structured spacer with a kozak sequence" (DNA CGAACTAGTATTCTTCTGGTCCCCACAGACTCAGAGAGAACCCGCCACC; expressed or natural sequence) | – | – | – | translation / expression (luminescence in supernatant) (1C1C7 cells [3]): did not show the same benefit
4 | CCCCCCCCCCCCCCSCCOC(=O)CCN(CCCn1ccnc1C)CCC(=O)OCCSCCCCCCCCCCCCCC [22-S14, bis(2-(tetradecylthio)ethyl) 3,3′-((3-(2-methyl-1H-imidazol-1-yl)propyl)azanediyl)dipropionate] | 97 | 0.05 | 64 | –
5 | CCCCCCCCC(CCCCCC)C(=O)OCCCCCCN(CCCCCCOC(=O)C(CCCCCC)CCCCCCCC)CCCn1ccnc1 (stereo not shown) [Lipid 26, Table 10a] | 96 | 0.04 | 84 | –
6 | Salivirus A SZ-1 (nucleic acid) DNA: TCTGTCCTCACCCCATCTTCCCTTCTTTCCTGCACCGTTACGCTTACTCGCATGTGCATTGAGTGGTGCACGTGCTTGAACAAACAGCTACACTCACATGGGGGCGGGTTTTCCCGCCCTGCGGCCTCTCGCGAGGCCCACCCCTCCCCTTCCTCCCATAACTACAGTGCTTTGGTAGGTAAGCATCCTGATCCCCCGCGGAAGCTGCTCACGTGGCAACTGTGGGGACCCAGACAGGTTATCAAAGGCACCCGGTCTTTCCGCCTTCAGGAGTATCCCTGCTAGTGAATTCTAGTAGGGCTCTGCTTGGTGCCAACCTCCCCCAAATGCGCGCTGCGGGAGTGCTCTTCCCCAACTCACCCTAGTATCCTCTCATGTGTGTGCTTGGTCAGCATATCTGAGACGATGTTCCGCTGTCCCAGACCAGTCCAGTAATGGACGGGCCAGTGTGCGTAGTCGTCTTCCGGCTTGTCCGGCGCATGTTTGGTGAACCGGTGGGGTAAGGTTGGTGTGCCCAACGCCCGTACTTTGGTGATACCTCAAGACCACCCAGGAATGCCAGGGAGGTACCCCGCTTCACAGCGGGATCTGACCCTGGGCTAATTGTCTACGGTGGTTCTTCTTGCTTCCACTTCTTTCTACTGTTCATG | – | – | – | luminescence at 24 hours (1C1C7 cells [4]): high luminescence
7 | Crohivirus B IRES: "Crohivirus B (CrVB) IRES", one of the selected IRES sequences, SEQ ID NOs: 348-389 (nucleic acid, Crohivirus B) DNA: GTATAAGAGACAGGTGTTTGCCTTGTCTTCGGACTGGCATCTTGGGACCAACCCCCCTTTTCCCCAGCCATGGGTTAAATGGCAATAAAGGACGTAACAACTTTGTAACCATTAAGCTTTGTAATTTTGTAACCACTAAGCTTTGTGCACATAATGTAACCATCAAGCTTGTTAGTCCCAGCAGGAGGTTTGCATGCTTGTAGCCGAAATGGGGCTCGACCCCCCATAGTAGGATACTTGATTTTGCATTCCATTGTGGACCTGCAAACTCTACACATAGAGGCTTTGTCTTGCATCTAAACACCTGAGTACAGTGTGTACCTAGACCCTATAGTACGGGAGGACCGTTTGTTTCCTCAATAACCCTACATAATAGGCTAGGTGGGCATGCCCAATTTGCAAGATCCCAGACTGGGGGTCGGTCTGGGCAGGGTTAGATCCCTGTTAGCTACTGCCTGATAGGGTGGTGCTCAACCATGTGTAGTTTAAATTGAGCTGTTCATATACC | – | – | – | luminescence at 24 hours (HEK293 cells): highest luminescence
